A value given as a limit tells only on which side of the number the result lay.

The first assay deals with FKBP12 (Homo sapiens, UniProt P62942). The assay can be described thus: rotamase inhibition assay (N-succinyl-Ala-Ala-Pro-Phe-p-nitroanilide, chymotrypsin-coupled). It is filed as biochemical. Conditions: Rotamase Ki(app). The procedure: In the rotamase inhibition assay, isomerization of an artificial substrate N-succinyl-Ala-Ala-Pro-Phe-p-nitroanilide is followed spectrophotometrically. The assay includes the cis form of the substrate, FKBP12, the compound being tested, and chymotrypsin. Chymotrypsin is able to cleave p-nitroaniline from the trans form of the substrate, but not from the cis form. Release of p-nitroaniline is measured spectrophotometrically. Using this assay, various amounts of the FKBP rotamase-inhibiting compounds of formula (I-a) or (I-b) were added to cis-N-succinyl-alanine-alanine-proline-phenylalanine-para-nitroaniline (Bachem, 3132 Kashiwa Street, Torrance, Calif. 90505) in the presence of FKBP12 and chymotrypsin. Spectrophotometric measurements of p-nitroaniline concentrations allowed estimation of the apparent Ki values, which are provided in Table 1 below.
Sequence of FKBP12 (P62942 whole entry, species assumed): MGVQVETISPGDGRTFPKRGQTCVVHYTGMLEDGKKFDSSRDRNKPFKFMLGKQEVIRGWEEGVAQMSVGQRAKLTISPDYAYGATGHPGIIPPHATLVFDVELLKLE
`COc1cc(OC)cc(N2C=C3C4CCCC(C(=O)N3CC2=O)N4C(=O)C(=O)c2cc(OC)c(OC)c(OC)c2)c1` (stereo not shown) [Compound 142] displayed a Ki of 0.054 µM.

Staying with this assay, now noted: apparent Ki; NI = no inhibition at the concentrations tested; read-out: Rotamase Ki(app).
In the case of `COC1(C(=O)C(=O)N2C3CCCC2C2=CN(C4CCCC4)C(=O)CN2C3=O)CCCC1` (stereo not shown) [Compound 116], the Ki was 0.96 µM.

`COc1cc(C(=O)C(=O)N2C3CCCC2C2=CN(C4CCCC4)C(=O)CN2C3=O)cc(OC)c1OC` (stereo not shown) [Compound 117]: the Ki came out at 0.084 µM.

As to `CCC(C)(C)C(=O)C(=O)N1C2CCCC1C1=CN(C3CCCC3)C(=O)CN1C2=O` (stereo not shown) [Compound 118], the Ki is 1 µM.

As to `COCOC1(C(=O)C(=O)N2[C@@H]3CCC[C@H]2C(=O)N2CC(=O)N(CC(OC)OC)C[C@H]32)CCCC1` [Compound 119], the Ki was over 40 µM.

On to `COC[C@@H]1CC[C@@H](C)[C@](O)(C(=O)C(=O)N2C3CCCC2C(=O)N(CCCCc2ccccc2)C3)C1` (stereo partly shown) [Compound 120], for which the Ki was 2.5 µM.

Regarding `CC(=O)OCC1(C(=O)C(=O)N2C3CCCC2C2=CN(C4CCCC4)C(=O)CN2C3=O)CCCC1` (stereo not shown) [Compound 121], the Ki is 0.78 µM.

For the compound `COc1cc(C(=O)C(=O)N2C3CCCC2C2=CN(CC4CC4)C(=O)CN2C3=O)cc(OC)c1OC` (stereo not shown) [Compound 122], the Ki stood at 0.15 µM.

Consider `CCC(C)(C)C(=O)C(=O)N1C2CCCC1C1=CN(CC3CC3)C(=O)CN1C2=O` (stereo not shown) [Compound 123], for which the Ki was 1.2 µM.

For the compound `CC(=O)OCC1(C(=O)C(=O)N2C3CCCC2C2=CN(CC4CC4)C(=O)CN2C3=O)CCCC1` (stereo not shown) [Compound 124], the Ki was 0.38 µM.

`COCOC1(C(=O)C(=O)N2C3CCCC2C2=CN(C4CCCC4)C(=O)CN2C3=O)CCCC1` (stereo not shown) [Compound 135]: the Ki turned out to be 1.4 µM.

`COCOC1(C(=O)C(=O)N2C3CCC[C@@H]2[C@@H]2Cc4c(cc(OC)cc4OC)CN2C3=O)CCCC1` [Compound 136]: the Ki is 2.4 µM.

For `COC1(C(=O)C(=O)N2[C@@H]3CCC[C@H]2C(=O)N2Cc4c(cc(C(F)(F)F)cc4C(F)(F)F)C[C@@H]32)CCCC1` [Compound 137], the Ki came out at 9.7 µM.

For the compound `COC[C@@H]1CC[C@@H](C)[C@](O)(C(=O)C(=O)N2C3CCCC2C(=O)N(Cc2ccc4ccccc4c2)C3)C1` (stereo partly shown) [Compound 138], the Ki was 1.3 µM.

Take `COc1cc(C(=O)C(=O)N2C3CCCC2C(=O)N(Cc2ccc4ccccc4c2)C3)cc(OC)c1OC` (stereo not shown) [Compound 139]: the Ki was 0.355 µM.

On to `COC[C@@H]1CC[C@@H](C)[C@](O)(C(=O)C(=O)N2C3CCCC2C2=CN(C4CCCC4)C(=O)CN2C3=O)C1` (stereo partly shown) [Compound 140], for which the Ki came to 10 µM.

As for `COCOC1(C(=O)C(=O)N2C3CCC[C@@H]2[C@@H]2Cc4cc(OC(F)(F)F)ccc4CN2C3=O)CCCC1` [Compound 141], the Ki is 4 µM.

Take `COc1cc(OC)cc(N2C=C3C4CCCC(C(=O)N3CC2=O)N4C(=O)C(=O)C2(COC(C)=O)CCCC2)c1` (stereo not shown) [Compound 143]: the Ki is 0.19 µM.

On to `CCC(=O)OC1(C(=O)C(=O)N2C3CCCC2C2=CN(C4CCCC4)C(=O)CN2C3=O)CCCC1` (stereo not shown) [Compound 144], for which the Ki is 1.2 µM.

In the case of `COCC(=O)OC1(C(=O)C(=O)N2C3CCCC2C2=CN(C4CCCC4)C(=O)CN2C3=O)CCCC1` (stereo not shown) [Compound 145], the Ki was 1.7 µM.

In the case of `COC1(C(=O)C(=O)N2C3CCCC2C2=Cc4cc(C(F)(F)F)cc(C(F)(F)F)c4CN2C3=O)CCCC1` (stereo not shown) [Compound 146], the Ki is over 50 µM.

For the compound `CC(C)C(=O)OC1(C(=O)C(=O)N2C3CCCC2C2=CN(C4CCCC4)C(=O)CN2C3=O)CCCC1` (stereo not shown) [Compound 150], the Ki amounted to 1.5 µM.

For the compound `COc1cc(OC)cc(N2C=C3C4CCCC(C(=O)N3CC2=O)N4C(=O)C(=O)C2(OC)CCCC2)c1` (stereo not shown) [Compound 151], the Ki turned out to be 0.53 µM.

For the compound `COCOCC1(C(=O)C(=O)N2C3CCCC2C2=CN(C4CCCC4)C(=O)CN2C3=O)CCCC1` (stereo not shown) [Compound 152], the Ki was found to be 2.8 µM.

With `COc1ccc(OC[C@@H]2CC[C@H](N3CC4CCCC(C3=O)N4C(=O)C(=O)c3cc(OC)c(OC)c(OC)c3)C2)cc1` (stereo partly shown) [Compound 153], the Ki was 0.52 µM.

The values are drawn from US6630472B1, “Compounds, pharmaceutical compositions, and methods for stimulating neuronal growth and elongation” (priority 1998, dated 2003).
